This passage reports TGI and GI50 results from PubChem BioAssay (NCI).

Molecules are shown by their SMILES.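 These data come from cells grown in 96-well plates and exposed to compound for 48 hours at five concentrations. GI50 marks 50% less growth. TGI marks complete inhibition of growth.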 A value given as a limit tells only on which side of the number the result lay.

For one assay, the system named is NCI-H460 lung. Briefly: NCI anticancer screen, dose series, 48 h.
For `CN(C)C(=N)c1ccccc1`, the TGI is greater than 100 µM.

Compound `Cc1cc(C)nc(NS(=O)(=O)c2ccc(NC(=O)c3ccc(Cl)c4c(Nc5ccc(S(=O)(=O)Nc6nc(C)cc(C)n6)cc5)c5ccccc5nc34)cc2)n1` had a TGI greater than 100 µM.

For the compound `CC1=C(C(=O)NCc2ccccc2)C(/C=C/c2ccccc2)C(C(=O)NCc2ccccc2)=C(C)N1`, the TGI is greater than 100 µM.

As for `CCCCCN(CCCCC)CCCNc1c2c(nc3ccc(Cl)cc13)CCCC2`, the GI50 was 2.28 µM and the TGI came out at 6.9 µM.

A further assay relates to NCI-H522 lung. Briefly: NCI anticancer screen, dose series, 48 h.
Turning to `Cc1ccc(N=Nc2ccc(N(CCC#N)CCC#N)cc2C)c(Br)c1`, the TGI was greater than 100 µM.

As for `CC(C)C/C(CC(=O)CCC(=O)Nc1ccccc1[N+](=O)[O-])=N\NC(=O)c1cc2ccccc2cc1O`, the TGI stood at 76 µM.

In turn, `O=C(N/C(=C\c1ccc(/C=C(\NC(=O)c2ccccc2)c2nc3cc([N+](=O)[O-])ccc3[nH]2)cc1)c1nc2cc([N+](=O)[O-])ccc2[nH]1)c1ccccc1` returned a TGI of 50 µM.

For `CCCCCCCCCCCCCCCCCC(CCCCCCCCCCCCCCCCC)OP(=O)(O)O`, the TGI was greater than 100 µM.

Compound `COC1(OC)CCC2C1C1CCC(OC)(OC)C21` (configuration not stated) had a TGI greater than 50 µM.

In turn, `CN1C(=O)C(C)(C)C2(SC(C)(C)C2(C)C)N(C)C1=S` (configuration not stated) displayed a TGI greater than 100 µM.

The compound `COc1cc2c(cc1OC)-c1c3cc(O)ccc3nn[n+]1CC2` gave a TGI greater than 100 µM.

As for `Cc1nc2ccccc2c(N)c1-c1cc(C)c2c(C)nc3ccccc3c2n1`, the GI50 is 2.41 µM and the TGI is greater than 20.5 µM.

In turn, `N#CCCN(CCC#N)c1ccc(/C=C2\N=C(c3cc([N+](=O)[O-])ccc3Cl)OC2=O)cc1` came in with a TGI of 27.6 µM.

For the compound `NC(Cc1c[nH]c2c(O)cccc12)C(=O)O` (configuration not stated), the GI50 was greater than 100 µM and the TGI is greater than 100 µM.

The compound `O=C1C2C(C(=O)N1OS(=O)(=O)c1ccccc1)N(Cc1ccccc1)C(=O)N2Cc1ccccc1` (configuration not stated) gave a TGI greater than 100 µM.

`O=C(COc1ccc(Br)cc1Br)N1N=C(c2ccc([N+](=O)[O-])o2)CC1(O)c1ccccc1` (configuration not stated) registered a TGI of 20.7 µM.

In the case of `CCCCOC(=O)C1OC(O[C@H]2CCC3(C)C(CCC4(C)C3CC=C3C5CC(C)(C)CCC5(C(=O)O)CC[C@]34C)C2(C)C)C(OC2OC(CO)C(O)C(O)C2O)C(OC2OC(CO)C(O)C(O)C2O)C1O` (some centres not stated), the GI50 is 43.9 µM and the TGI is greater than 100 µM.

Consider `Clc1ccc2c(NCCCCNc3nc(N4CCCCC4)nc4ccccc34)ccnc2c1`, for which the GI50 is 2.04 µM and the TGI was found to be 5.3 µM.

In turn, `O=C1/C(=C/c2ccccc2)CN(C(=O)C(Cl)(Cl)Cl)C/C1=C\c1ccccc1` came in with a TGI of 4.08 µM.

For the compound `CN(C)C(=N)c1ccccc1`, the TGI is greater than 100 µM.

Take `NNC(=O)Nc1cccnc1`: the TGI was greater than 100 µM.

Regarding `CCCCCN(CCCCC)CCCNc1c2c(nc3ccc(Cl)cc13)CCCC2`, the GI50 is 1.74 µM and the TGI worked out at 3.86 µM.

A further assay deals with SK-MEL-2 melanoma. Description: NCI anticancer screen, dose series, 48 h.
With `Cc1ccc(N=Nc2ccc(N(CCC#N)CCC#N)cc2C)c(Br)c1`, the TGI was greater than 100 µM.

Turning to `O=C(N/C(=C\c1ccc(/C=C(\NC(=O)c2ccccc2)c2nc3cc([N+](=O)[O-])ccc3[nH]2)cc1)c1nc2cc([N+](=O)[O-])ccc2[nH]1)c1ccccc1`, the TGI came out at 83.3 µM.

Compound `COC(CN1C(=O)c2cccc3cccc(c23)C1=O)OC` registered a TGI of 86.3 µM.

In turn, `CCCCCCCCCCCCCCCCCC(CCCCCCCCCCCCCCCCC)OP(=O)(O)O` registered a TGI greater than 100 µM.

For `COC1(OC)CCC2C1C1CCC(OC)(OC)C21` (configuration not stated), the TGI is greater than 50 µM.

Turning to `CN1C(=O)C(C)(C)C2(SC(C)(C)C2(C)C)N(C)C1=S` (configuration not stated), the TGI was greater than 100 µM.

With `N#CCCN(CCC#N)c1ccc(/C=C2\N=C(c3cc([N+](=O)[O-])ccc3Cl)OC2=O)cc1`, the TGI is 38.1 µM.

As to `COc1ccccc1C12OC(=O)C1(C)Oc1ccccc1C2=O` (configuration not stated), the TGI was greater than 100 µM.

In the case of `O=C(COc1ccc(Br)cc1Br)N1N=C(c2ccc([N+](=O)[O-])o2)CC1(O)c1ccccc1` (configuration not stated), the TGI amounted to 31.3 µM.

On to `COc1cc(-c2nn(-c3ccc(NC(=O)c4ccc(Cl)c(C(F)(F)F)c4)cc3)cc2-c2ccncc2)ccc1Cl`, for which the GI50 was 3.12 µM and the TGI is greater than 28.5 µM.

In the case of `CCCCOC(=O)C1OC(O[C@H]2CCC3(C)C(CCC4(C)C3CC=C3C5CC(C)(C)CCC5(C(=O)O)CC[C@]34C)C2(C)C)C(OC2OC(CO)C(O)C(O)C2O)C(OC2OC(CO)C(O)C(O)C2O)C1O` (some centres not stated), the GI50 is 40.9 µM and the TGI was greater than 100 µM.

`N#CC1C(C#N)C2(c3ccccc3)C(c3ccccc3)=NN(c3ccccc3)CC12` (configuration not stated) gave a TGI greater than 100 µM.

`Clc1ccc2c(NCCCCNc3nc(N4CCCCC4)nc4ccccc34)ccnc2c1`: the GI50 was 1.98 µM and the TGI came out at 4.02 µM.

`O=C1/C(=C/c2ccccc2)CN(C(=O)C(Cl)(Cl)Cl)C/C1=C\c1ccccc1` came in with a TGI of 10.3 µM.

In the case of `CN(C)C(=N)c1ccccc1`, the TGI was greater than 100 µM.

In turn, `NNC(=O)Nc1cccnc1` registered a TGI greater than 100 µM.

The compound `Cc1cc(C)nc(NS(=O)(=O)c2ccc(NC(=O)c3ccc(Cl)c4c(Nc5ccc(S(=O)(=O)Nc6nc(C)cc(C)n6)cc5)c5ccccc5nc34)cc2)n1` returned a TGI greater than 100 µM.

On to `CC1=C(C(=O)NCc2ccccc2)C(/C=C/c2ccccc2)C(C(=O)NCc2ccccc2)=C(C)N1`, for which the TGI was greater than 100 µM.

As to `CCCCCN(CCCCC)CCCNc1c2c(nc3ccc(Cl)cc13)CCCC2`, the GI50 is 2.05 µM and the TGI amounted to 3.99 µM.

The next assay has as its system SK-OV-3 ovarian. Briefly: NCI anticancer screen, dose series, 48 h.
Compound `O=C(O)CCc1coc2ccc(O)cc12` returned a TGI greater than 100 µM.

In the case of `Cc1ccc(N=Nc2ccc(N(CCC#N)CCC#N)cc2C)c(Br)c1`, the TGI was greater than 100 µM.

In the case of `CC(C)C/C(CC(=O)CCC(=O)Nc1ccccc1[N+](=O)[O-])=N\NC(=O)c1cc2ccccc2cc1O`, the TGI was greater than 100 µM.

Regarding `O=C(N/C(=C\c1ccc(/C=C(\NC(=O)c2ccccc2)c2nc3cc([N+](=O)[O-])ccc3[nH]2)cc1)c1nc2cc([N+](=O)[O-])ccc2[nH]1)c1ccccc1`, the TGI was greater than 100 µM.

`COC(CN1C(=O)c2cccc3cccc(c23)C1=O)OC` displayed a TGI greater than 100 µM.

In turn, `CCCCCCCCCCCCCCCCCC(CCCCCCCCCCCCCCCCC)OP(=O)(O)O` registered a TGI greater than 100 µM.

`COC1(OC)CCC2C1C1CCC(OC)(OC)C21` (configuration not stated) had a TGI greater than 50 µM.

Regarding `CN1C(=O)C(C)(C)C2(SC(C)(C)C2(C)C)N(C)C1=S` (configuration not stated), the TGI is greater than 100 µM.

`COc1cc2c(cc1OC)-c1c3cc(O)ccc3nn[n+]1CC2` had a TGI greater than 100 µM.

Take `Cc1nc2ccccc2c(N)c1-c1cc(C)c2c(C)nc3ccccc3c2n1`: the GI50 is 1.8 µM and the TGI was 4.72 µM.

Compound `N#CCCN(CCC#N)c1ccc(/C=C2\N=C(c3cc([N+](=O)[O-])ccc3Cl)OC2=O)cc1` registered a TGI greater than 100 µM.

`COc1ccccc1C12OC(=O)C1(C)Oc1ccccc1C2=O` (configuration not stated) yielded a TGI greater than 100 µM.

Consider `NC(Cc1c[nH]c2c(O)cccc12)C(=O)O` (configuration not stated), for which the GI50 is greater than 100 µM and the TGI was greater than 100 µM.

In turn, `O=C1C2C(C(=O)N1OS(=O)(=O)c1ccccc1)N(Cc1ccccc1)C(=O)N2Cc1ccccc1` (configuration not stated) showed a TGI greater than 100 µM.
